{
  "source": "paper PMC2694832",
  "about": "“Pharmacokinetics, tissue distribution and mass balance of radiolabeled dihydroartemisinin in male rats” (Malaria Journal, 2009)",
  "assay": "Mass balance and urinary/faecal elimination of [^14C] DHA",
  "type": "in vivo, rats",
  "conditions": "rats i.v. 3 mg/kg",
  "description": "Metabolic cages were washed with a solution of 2% Count-off® (Perkin-Elmer Life and Analytical Sciences, Boston, Massachusetts, USA) and the volume was measured. Duplicate portions (0.1 ml urine; 1 ml cage rinse) of each sample were radio-assayed after the addition of scintillation cocktail. The weights of individual faecal samples were obtained and the samples were subsequently homogenized in four volumes of de-ionized water. Quadruplicate portions (1.0 ml) of each homogenate were decolourized with 30% hydrogen peroxide, and digested with Solvable® tissue solubilizer. After acidification with glacial acetic acid and addition of scintillation cocktail, samples were assayed for radioactivity. The samples were kept in at -20°C for two weeks prior to analysis.",
  "key": {"[1]": {"conditions": "Feces, listed as [^14C] dihydroartemisinin, 3 mg/kg"}, "[2]": {"conditions": "Total, through 192 hours, 3 mg/kg"}, "[3]": {"conditions": "Total, through 192 hours, listed as [^14C] dihydroartemisinin, 3 mg/kg"}, "[4]": {"conditions": "Urine, listed as [^14C] dihydroartemisinin, 3 mg/kg"}},
  "note": "“And” between values parts separate entries of the source, which are not always exact repeats. Equal values may be shown once.",
  "data": [
    {"compound": "C[C@@H]1CC[C@H]2[C@@H]([14CH3])C(O)O[C@@H]3O[C@@]4(C)CC[C@@H]1[C@]32OO4", "note": "(some centres unmarked) [[^14C] DHA, [16-^14C] DHA]", "values": [
      {"measurement": "Fecal excretion of total radiolabel (Feces)", "setting": "0.04–0.33 days", "result": "1.52 ± 0.58 % of dose"},
      {"measurement": "Fecal excretion of total radiolabel (Feces)", "setting": "0.33–1.0 days", "result": "29.56 ± 11.75 % of dose"},
      {"measurement": "Fecal excretion of total radiolabel (Feces)", "setting": "1–2 days", "result": "6.14 ± 1.71 % of dose"},
      {"measurement": "Fecal excretion of total radiolabel (Feces)", "setting": "2–3 days", "result": "1.64 ± 0.78 % of dose"},
      {"measurement": "Fecal excretion of total radiolabel (Feces)", "setting": "3–4 days", "result": "0.78 ± 0.31 % of dose"},
      {"measurement": "Fecal excretion of total radiolabel (Feces)", "setting": "4–5 days", "result": "0.46 ± 0.09 % of dose"},
      {"measurement": "Fecal excretion of total radiolabel (Feces)", "setting": "5–6 days", "result": "0.15 ± 0.06 % of dose"},
      {"measurement": "Fecal excretion of total radiolabel (Feces)", "setting": "6–7 days", "result": "0.11 ± 0.05 % of dose"},
      {"measurement": "Fecal excretion of total radiolabel (Feces)", "setting": "7–8 days", "result": "0.04 ± 0.04 % of dose"},
      {"measurement": "Peak height", "setting": "Feces, 3 mg/kg", "result": 292.39, "unit": "μg/rat"},
      {"measurement": "Peak time", "setting": "Feces, 3 mg/kg", "result": 0.67, "unit": "days"},
      {"measurement": "Peak height", "setting": "[1]", "result": "292.39 ± 150.29", "unit": "μg/rat"},
      {"measurement": "Peak time", "setting": "[1]", "result": "0.67 ± 0.09", "unit": "days"},
      {"measurement": "Fecal excretion of total radiolabel (Feces)", "setting": "[2]", "result": "~40.39 % of dose and ~40 % of dose"},
      {"measurement": "Total radiolabel in Cage wash", "setting": "[2]", "result": "~1.88 % of dose"},
      {"measurement": "Fecal excretion of total radiolabel (Feces)", "setting": "[3]", "result": "40.39 ± 13.22 % of dose"},
      {"measurement": "Total radiolabel in Cage wash", "setting": "[3]", "result": "1.88 ± 2.27 % of dose"},
      {"measurement": "Peak time", "setting": "Urine, 3 mg/kg", "result": 0.37, "unit": "days"},
      {"measurement": "Peak height", "setting": "[4]", "result": "234.48 ± 33.74", "unit": "μg/rat"},
      {"measurement": "Peak time", "setting": "[4]", "result": "0.37 ± 0.06", "unit": "days"},
      {"measurement": "lag time of elimination", "setting": "faeces", "result": 0.31, "unit": "days"},
      {"measurement": "Ratio of excretion (urine/feces)", "result": "1.37 ± 0.39"},
      {"measurement": "faecal excretion, range among animals", "setting": "through 192 hours", "result": "27–53 % of the administered dose"},
      {"measurement": "urinary excretion, range among animals", "setting": "through 192 hours", "result": "44–61 % of the administered dose"},
      {"measurement": "total dose excreted within first 24 hours", "setting": "urine and faeces", "result": "greater than 74.76%"},
      {"measurement": "lag time of elimination", "setting": "urine", "result": "< 0.02", "unit": "days"}
    ]}
  ]
}
